Test: Anticancer human tumor 997537-175-T-J1-PDC patient-derived colon adenocarcinoma cell line growth inhibition [POLQ]
Conditions: 997537-175-T-J1-PDC complex spheroid viability, combination with POLQ inhibitors; curve of first compound; second compound 0.0316 µM
In short: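 Growth inhibition in 3D: complex spheroids (tumor PDC, HUVEC, MSC) treated with POLQ inhibitor combinations; where Cmax unknown, highest tested concentration 10 microM, except SN-38 at 1 microM.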
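Also: luminescence signal used as a surrogate for viable cells; spheroids exposed to drugs for seven days before readout.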

Row | Compound | IC50
1 | CCc1cc2c(N3CCc4c(cc(Cn5ccnc5)cc4-c4cn(C)nc4C(F)(F)F)C3=O)cc(C)nc2c(OC)n1 + Nc1ccc(C#CCN(C(=O)Cc2ncc(C(F)(F)F)cc2C(F)(F)F)c2ccc(F)cc2)nn1 | > 10 µM
2 | COc1ccc([C@@H](O)c2cc(-c3ncnc4cc(N5CCOCC5)ccc34)c(F)cc2Cl)nn1 + Nc1ccc(C#CCN(C(=O)Cc2ncc(C(F)(F)F)cc2C(F)(F)F)c2ccc(F)cc2)nn1 | > 10 µM
3 | COc1cc2cc(C(=O)CCC(=O)O)sc2cc1OC + Cc1cccc(N(C)C(=O)C2C(O)CCN2c2nc(C)cc(C(F)(F)F)c2C#N)c1 | > 10 µM
4 | COc1cccc(OCCCN)c1-c1cc(Nc2cnc(C#N)cn2)n[nH]1 + COC1C(OC(N)=O)C(O)C(Oc2ccc3c(O)c(NC(=O)c4ccc(O)c(CC=C(C)C)c4)c(=O)oc3c2C)OC1(C)C | 0.0468 µM

Same assay, conditions: 997537-175-T-J1-PDC complex spheroid viability, combination with POLQ inhibitors; curve of first compound; second compound 0.1 µM

Row | Compound | IC50
5 | CCc1cc2c(N3CCc4c(cc(Cn5ccnc5)cc4-c4cn(C)nc4C(F)(F)F)C3=O)cc(C)nc2c(OC)n1 + Nc1ccc(C#CCN(C(=O)Cc2ncc(C(F)(F)F)cc2C(F)(F)F)c2ccc(F)cc2)nn1 | > 10 µM
6 | COc1ccc([C@@H](O)c2cc(-c3ncnc4cc(N5CCOCC5)ccc34)c(F)cc2Cl)nn1 + Nc1ccc(C#CCN(C(=O)Cc2ncc(C(F)(F)F)cc2C(F)(F)F)c2ccc(F)cc2)nn1 | > 10 µM
7 | COc1cc2cc(C(=O)CCC(=O)O)sc2cc1OC + Cc1cccc(N(C)C(=O)C2C(O)CCN2c2nc(C)cc(C(F)(F)F)c2C#N)c1 | > 10 µM
8 | COc1cccc(OCCCN)c1-c1cc(Nc2cnc(C#N)cn2)n[nH]1 + COC1C(OC(N)=O)C(O)C(Oc2ccc3c(O)c(NC(=O)c4ccc(O)c(CC=C(C)C)c4)c(=O)oc3c2C)OC1(C)C | 0.121 µM

Same assay, conditions: 997537-175-T-J1-PDC complex spheroid viability, combination with POLQ inhibitors; curve of first compound; second compound 0.316 µM

Row | Compound | IC50
9 | CCc1cc2c(N3CCc4c(cc(Cn5ccnc5)cc4-c4cn(C)nc4C(F)(F)F)C3=O)cc(C)nc2c(OC)n1 + Nc1ccc(C#CCN(C(=O)Cc2ncc(C(F)(F)F)cc2C(F)(F)F)c2ccc(F)cc2)nn1 | > 10 µM
10 | COc1ccc([C@@H](O)c2cc(-c3ncnc4cc(N5CCOCC5)ccc34)c(F)cc2Cl)nn1 + Nc1ccc(C#CCN(C(=O)Cc2ncc(C(F)(F)F)cc2C(F)(F)F)c2ccc(F)cc2)nn1 | > 10 µM
11 | COc1cc2cc(C(=O)CCC(=O)O)sc2cc1OC + Cc1cccc(N(C)C(=O)C2C(O)CCN2c2nc(C)cc(C(F)(F)F)c2C#N)c1 | > 10 µM
12 | COc1cccc(OCCCN)c1-c1cc(Nc2cnc(C#N)cn2)n[nH]1 + COC1C(OC(N)=O)C(O)C(Oc2ccc3c(O)c(NC(=O)c4ccc(O)c(CC=C(C)C)c4)c(=O)oc3c2C)OC1(C)C | 0.0778 µM

Same assay, conditions: 997537-175-T-J1-PDC complex spheroid viability, combination with POLQ inhibitors; curve of first compound; second compound 1 µM

Row | Compound | IC50
13 | CCc1cc2c(N3CCc4c(cc(Cn5ccnc5)cc4-c4cn(C)nc4C(F)(F)F)C3=O)cc(C)nc2c(OC)n1 + Nc1ccc(C#CCN(C(=O)Cc2ncc(C(F)(F)F)cc2C(F)(F)F)c2ccc(F)cc2)nn1 | > 10 µM
14 | COc1ccc([C@@H](O)c2cc(-c3ncnc4cc(N5CCOCC5)ccc34)c(F)cc2Cl)nn1 + Nc1ccc(C#CCN(C(=O)Cc2ncc(C(F)(F)F)cc2C(F)(F)F)c2ccc(F)cc2)nn1 | > 10 µM
15 | COc1cc2cc(C(=O)CCC(=O)O)sc2cc1OC + Cc1cccc(N(C)C(=O)C2C(O)CCN2c2nc(C)cc(C(F)(F)F)c2C#N)c1 | > 10 µM
16 | COc1cccc(OCCCN)c1-c1cc(Nc2cnc(C#N)cn2)n[nH]1 + COC1C(OC(N)=O)C(O)C(Oc2ccc3c(O)c(NC(=O)c4ccc(O)c(CC=C(C)C)c4)c(=O)oc3c2C)OC1(C)C | 0.0324 µM

Same assay, conditions: 997537-175-T-J1-PDC complex spheroid viability, combination with POLQ inhibitors; curve of first compound; second compound 3.16 µM

Row | Compound | IC50
17 | CCc1cc2c(N3CCc4c(cc(Cn5ccnc5)cc4-c4cn(C)nc4C(F)(F)F)C3=O)cc(C)nc2c(OC)n1 + Nc1ccc(C#CCN(C(=O)Cc2ncc(C(F)(F)F)cc2C(F)(F)F)c2ccc(F)cc2)nn1 | > 10 µM
18 | COc1ccc([C@@H](O)c2cc(-c3ncnc4cc(N5CCOCC5)ccc34)c(F)cc2Cl)nn1 + Nc1ccc(C#CCN(C(=O)Cc2ncc(C(F)(F)F)cc2C(F)(F)F)c2ccc(F)cc2)nn1 | > 10 µM
19 | COc1cc2cc(C(=O)CCC(=O)O)sc2cc1OC + Cc1cccc(N(C)C(=O)C2C(O)CCN2c2nc(C)cc(C(F)(F)F)c2C#N)c1 | > 10 µM
20 | COc1cccc(OCCCN)c1-c1cc(Nc2cnc(C#N)cn2)n[nH]1 + COC1C(OC(N)=O)C(O)C(Oc2ccc3c(O)c(NC(=O)c4ccc(O)c(CC=C(C)C)c4)c(=O)oc3c2C)OC1(C)C | 0.0575 µM

Same assay, conditions: 997537-175-T-J1-PDC complex spheroid viability, combination with POLQ inhibitors; curve of first compound; second compound 10 µM

Row | Compound | IC50
21 | CCc1cc2c(N3CCc4c(cc(Cn5ccnc5)cc4-c4cn(C)nc4C(F)(F)F)C3=O)cc(C)nc2c(OC)n1 + Nc1ccc(C#CCN(C(=O)Cc2ncc(C(F)(F)F)cc2C(F)(F)F)c2ccc(F)cc2)nn1 | > 10 µM
22 | COc1ccc([C@@H](O)c2cc(-c3ncnc4cc(N5CCOCC5)ccc34)c(F)cc2Cl)nn1 + Nc1ccc(C#CCN(C(=O)Cc2ncc(C(F)(F)F)cc2C(F)(F)F)c2ccc(F)cc2)nn1 | > 10 µM
23 | COc1cc2cc(C(=O)CCC(=O)O)sc2cc1OC + Cc1cccc(N(C)C(=O)C2C(O)CCN2c2nc(C)cc(C(F)(F)F)c2C#N)c1 | > 10 µM
24 | COc1cccc(OCCCN)c1-c1cc(Nc2cnc(C#N)cn2)n[nH]1 + COC1C(OC(N)=O)C(O)C(Oc2ccc3c(O)c(NC(=O)c4ccc(O)c(CC=C(C)C)c4)c(=O)oc3c2C)OC1(C)C | 0.0599 µM

Same assay, conditions: 997537-175-T-J1-PDC complex spheroid viability, combination with POLQ inhibitors; second compound 0.0316 µM; first compound 0.00316 µM; stronger effect = lower value

Row | Compound | viability, T/C
25 | COc1cccc(OCCCN)c1-c1cc(Nc2cnc(C#N)cn2)n[nH]1 + COC1C(OC(N)=O)C(O)C(Oc2ccc3c(O)c(NC(=O)c4ccc(O)c(CC=C(C)C)c4)c(=O)oc3c2C)OC1(C)C | 100%

Same assay, conditions: 997537-175-T-J1-PDC complex spheroid viability, combination with POLQ inhibitors; second compound 0.0316 µM; first compound 0.01 µM; stronger effect = lower value

Row | Compound | viability, T/C
26 | COc1cccc(OCCCN)c1-c1cc(Nc2cnc(C#N)cn2)n[nH]1 + COC1C(OC(N)=O)C(O)C(Oc2ccc3c(O)c(NC(=O)c4ccc(O)c(CC=C(C)C)c4)c(=O)oc3c2C)OC1(C)C | 95.6%

Same assay, conditions: 997537-175-T-J1-PDC complex spheroid viability, combination with POLQ inhibitors; second compound 0.0316 µM; first compound 0.0316 µM; stronger effect = lower value

Row | Compound | viability, T/C
27 | CCc1cc2c(N3CCc4c(cc(Cn5ccnc5)cc4-c4cn(C)nc4C(F)(F)F)C3=O)cc(C)nc2c(OC)n1 + Nc1ccc(C#CCN(C(=O)Cc2ncc(C(F)(F)F)cc2C(F)(F)F)c2ccc(F)cc2)nn1 | 96%
28 | COc1ccc([C@@H](O)c2cc(-c3ncnc4cc(N5CCOCC5)ccc34)c(F)cc2Cl)nn1 + Nc1ccc(C#CCN(C(=O)Cc2ncc(C(F)(F)F)cc2C(F)(F)F)c2ccc(F)cc2)nn1 | 95%
29 | COc1cc2cc(C(=O)CCC(=O)O)sc2cc1OC + Cc1cccc(N(C)C(=O)C2C(O)CCN2c2nc(C)cc(C(F)(F)F)c2C#N)c1 | 110%
30 | COc1cccc(OCCCN)c1-c1cc(Nc2cnc(C#N)cn2)n[nH]1 + COC1C(OC(N)=O)C(O)C(Oc2ccc3c(O)c(NC(=O)c4ccc(O)c(CC=C(C)C)c4)c(=O)oc3c2C)OC1(C)C | 59.9%

Same assay, conditions: 997537-175-T-J1-PDC complex spheroid viability, combination with POLQ inhibitors; second compound 0.0316 µM; first compound 0.1 µM; stronger effect = lower value

Row | Compound | viability, T/C
31 | CCc1cc2c(N3CCc4c(cc(Cn5ccnc5)cc4-c4cn(C)nc4C(F)(F)F)C3=O)cc(C)nc2c(OC)n1 + Nc1ccc(C#CCN(C(=O)Cc2ncc(C(F)(F)F)cc2C(F)(F)F)c2ccc(F)cc2)nn1 | 98.5%
32 | COc1ccc([C@@H](O)c2cc(-c3ncnc4cc(N5CCOCC5)ccc34)c(F)cc2Cl)nn1 + Nc1ccc(C#CCN(C(=O)Cc2ncc(C(F)(F)F)cc2C(F)(F)F)c2ccc(F)cc2)nn1 | 110%
33 | COc1cc2cc(C(=O)CCC(=O)O)sc2cc1OC + Cc1cccc(N(C)C(=O)C2C(O)CCN2c2nc(C)cc(C(F)(F)F)c2C#N)c1 | 102%
34 | COc1cccc(OCCCN)c1-c1cc(Nc2cnc(C#N)cn2)n[nH]1 + COC1C(OC(N)=O)C(O)C(Oc2ccc3c(O)c(NC(=O)c4ccc(O)c(CC=C(C)C)c4)c(=O)oc3c2C)OC1(C)C | 28.1%

Same assay, conditions: 997537-175-T-J1-PDC complex spheroid viability, combination with POLQ inhibitors; second compound 0.0316 µM; first compound 0.316 µM; stronger effect = lower value

Row | Compound | viability, T/C
35 | CCc1cc2c(N3CCc4c(cc(Cn5ccnc5)cc4-c4cn(C)nc4C(F)(F)F)C3=O)cc(C)nc2c(OC)n1 + Nc1ccc(C#CCN(C(=O)Cc2ncc(C(F)(F)F)cc2C(F)(F)F)c2ccc(F)cc2)nn1 | 98.1%
36 | COc1ccc([C@@H](O)c2cc(-c3ncnc4cc(N5CCOCC5)ccc34)c(F)cc2Cl)nn1 + Nc1ccc(C#CCN(C(=O)Cc2ncc(C(F)(F)F)cc2C(F)(F)F)c2ccc(F)cc2)nn1 | 100%
37 | COc1cc2cc(C(=O)CCC(=O)O)sc2cc1OC + Cc1cccc(N(C)C(=O)C2C(O)CCN2c2nc(C)cc(C(F)(F)F)c2C#N)c1 | 99.3%
38 | COc1cccc(OCCCN)c1-c1cc(Nc2cnc(C#N)cn2)n[nH]1 + COC1C(OC(N)=O)C(O)C(Oc2ccc3c(O)c(NC(=O)c4ccc(O)c(CC=C(C)C)c4)c(=O)oc3c2C)OC1(C)C | 33.6%

Same assay, conditions: 997537-175-T-J1-PDC complex spheroid viability, combination with POLQ inhibitors; second compound 0.0316 µM; first compound 1 µM; stronger effect = lower value

Row | Compound | viability, T/C
39 | CCc1cc2c(N3CCc4c(cc(Cn5ccnc5)cc4-c4cn(C)nc4C(F)(F)F)C3=O)cc(C)nc2c(OC)n1 + Nc1ccc(C#CCN(C(=O)Cc2ncc(C(F)(F)F)cc2C(F)(F)F)c2ccc(F)cc2)nn1 | 86.8%
40 | COc1ccc([C@@H](O)c2cc(-c3ncnc4cc(N5CCOCC5)ccc34)c(F)cc2Cl)nn1 + Nc1ccc(C#CCN(C(=O)Cc2ncc(C(F)(F)F)cc2C(F)(F)F)c2ccc(F)cc2)nn1 | 101%
41 | COc1cc2cc(C(=O)CCC(=O)O)sc2cc1OC + Cc1cccc(N(C)C(=O)C2C(O)CCN2c2nc(C)cc(C(F)(F)F)c2C#N)c1 | 111%
42 | COc1cccc(OCCCN)c1-c1cc(Nc2cnc(C#N)cn2)n[nH]1 + COC1C(OC(N)=O)C(O)C(Oc2ccc3c(O)c(NC(=O)c4ccc(O)c(CC=C(C)C)c4)c(=O)oc3c2C)OC1(C)C | 30.7%

From PubChem BioAssay AID1963825 (Molecular Pharmacology Branch, DTP, NCI, 2024)
